Data on two molecules can be found in patent US7998963B2, “Arylpiperazine derivatives and uses thereof” (Roche Palo Alto LLC, priority 2008, dated 2011).

For assay [1], the target named is T1, human norepinephrine transporter (hNET) (Homo sapiens, UniProt P23975).
T1 construct: expressed in transfected cells; host or cells: HEK-293 (Clone: HEK-hNET #2)
Kind of assay: hNET scintillation proximity assay (SPA), competition with [3H]-Nisoxetine. The format is binding. The settings on record: membranes of HEK-293 cells expressing recombinant hNET, Ki by Cheng-Prusoff. The method, then:
Screening for Compounds Active at Human Norepinephrine Transporter (HNET) Using a Scintillation Proximity Assay (SPA)
This assay was used to determine the affinity of ligands for the hNET transporter by competition with [^3H]-Nisoxetine. As in the hSERT assay of the above example, receptor-containing membranes were pre-coupled to the SPA beads and the binding of the appropriate radioligand to the transporter was measured. The light emission was proportional to the amount of bound radioligand, with unbound radioligand producing no signal. […]
Cell membranes were prepared using a membrane preparation buffer of 50 mM TRIS (pH 7.4). […] After a second centrifugation, the pellet was re-homogenized and brought to a final volume determined during the assay. […]
^3[H] […] The mixtures were allowed to stand at room temperature for one hour, and were then counted on a Packard TopCount LCS, a generic SPA counting protocol settings (Energy Range: Low, Efficiency Mode: Normal, Region A: 1.50-35.00, Region B: 1.50-256.00, Count Time (min.): 0.40, Background Subtract: none, Half-Life Correction: no, Quench Indicator: tSIS, Platemap blank subtraction: No, Cross talk reduction: Off).
(§1) The % inhibition was calculated for each compound tested [(Compound CPM at maximum concentration-Non-Specific CPM)/Total CPM*100]. […]
(In a scintillation proximity assay essentially only radioactivity close to the scintillant gives light.)

In assay [2] the target is T2, human dopamine transporter (hDAT) (Homo sapiens, UniProt Q01959).
T2 construct: expressed in transfected cells; host or cells: HEK-293
Briefly: hDAT scintillation proximity assay (SPA), competition with [3H]-Vanoxerine. The format is binding. The following applies: HEK-293 cells expressing recombinant hDAT, Ki by Cheng-Prusoff. As to the method:
Screening for Compounds Active at Human Dopamine Transporter Using a Scintillation Proximity Assay (SPA)
This assay was used to determine the affinity of ligands for the dopamine transporter by competition with [^3H]-Vanoxerine.
HEK-293 cells (Tatsumi et al., Eur. J. Pharmacol. 1997, 30, 249-258) stably expressing recombinant hDAT were maintained with media (DMEM hi glucose with 10% FBS, 300 μg/ml G418 and 2 mM L-Glutamine) and incubated at 37° C. with 5% CO2. Cells were plated four hours prior to experiment by placing approximately 30,000 cells per well (in PBS) on white, opaque Cell-Tak coated 96 well plates. Extra buffer was apriated from the cell plates using an ELx405 plate washer.
^3[H] vanoxerine (GBR 12909) radioligand, specific activity approximately 59 Ci/mmol, stock concentration, 400 nM, and 50 mM Tris-HCl, 300 mM NaCl, (pH 7.4) buffers were used for Scintillation Proximity Assay IC50/Ki determination. […]
as §1
[formula] where max=total binding, min=non specific binding, x=concentration (M) of the tested compound and n=Hill slope. The inhibition dissociation constant (Ki) of each compound was determined according to the method of Cheng-Prusoff and then converted into negative logarithm (pKi) of the Ki.

T2 sequence (Q01959 whole entry): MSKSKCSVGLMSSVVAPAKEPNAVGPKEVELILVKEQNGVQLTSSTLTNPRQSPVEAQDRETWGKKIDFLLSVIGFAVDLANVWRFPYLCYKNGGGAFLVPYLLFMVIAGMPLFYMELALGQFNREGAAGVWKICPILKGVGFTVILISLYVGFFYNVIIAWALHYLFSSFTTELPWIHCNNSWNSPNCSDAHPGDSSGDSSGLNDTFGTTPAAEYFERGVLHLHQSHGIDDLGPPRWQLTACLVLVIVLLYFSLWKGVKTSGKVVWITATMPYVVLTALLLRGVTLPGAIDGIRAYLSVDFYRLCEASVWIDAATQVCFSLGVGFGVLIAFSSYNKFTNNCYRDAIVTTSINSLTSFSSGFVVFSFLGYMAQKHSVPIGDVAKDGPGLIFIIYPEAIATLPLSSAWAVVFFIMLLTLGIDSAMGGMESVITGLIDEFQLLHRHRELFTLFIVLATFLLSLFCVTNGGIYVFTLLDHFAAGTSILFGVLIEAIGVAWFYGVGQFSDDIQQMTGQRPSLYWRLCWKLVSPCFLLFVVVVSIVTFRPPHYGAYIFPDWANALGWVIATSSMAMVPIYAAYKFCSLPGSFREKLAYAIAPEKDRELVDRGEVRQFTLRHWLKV
T1 sequence (P23975 whole entry): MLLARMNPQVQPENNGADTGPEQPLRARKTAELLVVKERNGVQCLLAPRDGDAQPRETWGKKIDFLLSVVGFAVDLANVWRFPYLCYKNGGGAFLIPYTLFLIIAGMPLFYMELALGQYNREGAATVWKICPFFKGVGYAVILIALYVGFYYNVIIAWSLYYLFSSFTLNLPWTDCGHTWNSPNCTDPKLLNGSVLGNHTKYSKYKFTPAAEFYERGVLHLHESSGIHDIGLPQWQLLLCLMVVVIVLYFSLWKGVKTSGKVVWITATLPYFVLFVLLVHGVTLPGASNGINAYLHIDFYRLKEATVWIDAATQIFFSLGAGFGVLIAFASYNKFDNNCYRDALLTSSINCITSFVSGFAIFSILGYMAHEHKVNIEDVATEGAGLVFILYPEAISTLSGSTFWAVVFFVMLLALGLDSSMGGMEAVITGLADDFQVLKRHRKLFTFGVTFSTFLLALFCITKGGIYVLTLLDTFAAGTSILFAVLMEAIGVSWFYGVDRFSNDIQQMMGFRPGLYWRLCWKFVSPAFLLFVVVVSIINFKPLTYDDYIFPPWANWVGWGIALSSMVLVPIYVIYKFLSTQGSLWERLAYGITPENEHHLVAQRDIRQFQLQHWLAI

For orientation: Ki means a dissociation constant, usually derived from enzyme kinetics or from competition with a known ligand. As for `c1ccc(OCC2CNCCN2c2ccc3[nH]ncc3c2)cc1` (centres unmarked) [5-(2-Phenoxymethyl-piperazin-1-yl)-1H-indazole], the Ki in assay [1] is about 6.31 nM.

For `c1cc2[nH]ncc2cc1N1CCNC[C@H]1CCC1CC1` [5-[(R)-2-(2-Cyclopropyl-ethyl)-piperazin-1-yl]-1H-indazole], the Ki in assay [2] was about 12.6 nM.
